# “Also recorded” adds a separate entry of the source. Where no end group is shown, it is not given here.
# Key:
# [1] = tested on: Methicillin Resistant S. aureus; type: cell-based, Staphylococcus aureus; parameters: unit not given here; details: 99.9% killing; for MBC, Methicillin Resistant S. aureus, 0 mM NaCl: 0 mM NaCl (10 mM phosphate buffer)
# [2] = tested on: P. aeruginosa attached to differentiated human bronchial epithelial cells; experiment: CF cell culture model: killing of bacteria bound to airway epithelial cells; type: cell-based, Pseudomonas aeruginosa; details: increasing peptide concentration, co-culture, FIG. 9
# Staphylococcus aureus [3] = experiment: Bacterial lysis (broth dilution) assay, MBC; type: cell-based; details: for MBC, Staphylococcus aureus, 0 mM NaCl: 0 mM NaCl (10 mM phosphate buffer); for MBC, Staphylococcus aureus, 0 mM NaCl / MBC, Staphylococcus aureus, 150 mM NaCl: 99.9% killing; for MBC, Staphylococcus aureus, 150 mM NaCl: 150 mM NaCl (physiologic)
# Source text: The assays for growth inhibition of a microbial target can be used to derive a minimum bactericidal concentration (MBC) value for the peptide, i.e., the concentration of peptide required to kill 99.9% (3-log decrease) of the microbial sample being tested. This value is well known to those in the art as representative of the effectiveness of a particular antimicrobial agent (e.g., an antibiotic) against a particular organism or group of organisms. In assays to detect the MBC of a peptide, growth inhibition of a bacterial population also can be measured with reference to the number of colony forming units (cfu) after exposure to a peptide relative to a control experiment without a peptide.
# Bacterial lysis assay. Bacterial lysis assays were conducted in a manner similar to that described previously (Lehrer, R. I., M. E. Selsted, D. Szklarek, and F. J. 1983. Infect. Immun. 42: 10-4, 1983; Miller, M. A., R. F. Garry, J. M. Jaynes, and R. C. Montelaro, AIDS Res Hum Retroviruses 7:511-519, 1991). Bacterial suspensions were cultured in Luria-Bertani Broth to mid-log growth phase and washed by two cycles of centrifugation and suspension in 10 mM phosphate buffer. The Abs600 of the suspension was adjusted with 10 mM phosphate buffer such that, upon dilution, 5-10×10^5 cfu/mL would be treated in the assay. Bacteria were incubated for 1 h with two-fold dilutions of peptides (100 μM to 100 nM) in 96-well plates using 10 mM phosphate buffer, pH 7.2, as a diluent. Ten-fold dilutions of bacteria were performed to 1:1 000; a 100 μl aliquot from each condition was spread on the surface of tryptic soy agar plates (Difco, Detroit, Mich.) which were incubated overnight. Colonies of surviving bacteria (cfu, colony-forming units) were counted and compared to untreated controls to determine the amount of peptide-induced killing under each condition. Log killing is defined as the log of the ratio of cfu present before and after treatment with peptide. The minimal bactericidal concentration, MBC, is the peptide concentration at which 99.9% (three log) killing is achieved (Pearson et al., Antimicrob. Agents Chemother. 18: 699-708, 1980).
# Results. Representative gram positive (S. aureus) and gram negative (P. aeruginosa) clinical isolates were used as the index bacteria to survey the peptides described herein.
# A limitation of many host-derived antimicrobial peptides is their decreased activity at physiologic (150 mM) NaCl concentration. See Friedrich et al., Antimicrobial Agents and Chemotherapy 43:1542-1548. The peptides WLSA-5 (SEQ ID NO: 3) and LL37 were tested against the two index strains at physiologic NaCl. […] The activity of antimicrobial peptides described herein were compared to an expanded list of clinical bacterial isolates. These are summarized in Table 2 by comparing their MBCs in phosphate buffer alone (low salt) and phosphate buffer containing 150 mM NaCl (physiologic conditions). Inspection of this table would lead one skilled in the art to conclude that the activity of antimicrobial peptides described herein compare favorably to the host derived antimicrobial peptides as it relates to the spectrum and potency of antimicrobial activity.
# Pseudomonas aeruginosa [4] = experiment: Bacterial lysis (broth dilution) assay, MBC; type: cell-based; parameters: MBC, Psuedomonas aeruginosa, 0 mM NaCl / MBC, Psuedomonas aeruginosa, 150 mM NaCl: unit not given here; details: for MBC, Psuedomonas aeruginosa, 0 mM NaCl: 0 mM NaCl (10 mM phosphate buffer); for MBC, Psuedomonas aeruginosa, 0 mM NaCl / MBC, Psuedomonas aeruginosa, 150 mM NaCl: 99.9% killing; for MBC, Psuedomonas aeruginosa, 150 mM NaCl: 150 mM NaCl (physiologic)
# [5] = tested on: differentiated primary human airway epithelial cells; experiment: CF cell culture model: transepithelial resistance as peptide toxicity
# Burkholderia cepacia = type: cell-based; details: standard broth dilution, FIG. 7
# Pseudomonas aeruginosa [6] = details: 1×10^5 colony-forming units; cited from earlier work
# [7] = tested on: diverse gram-negative and -positive bacterial isolates; details: cited from earlier work
# Staphylococcus aureus [8] = details: 1×10^5 colony-forming units; cited from earlier work
# [9] = target: Ca^2+ saturated calmodulin (Homo sapiens, UniProt P0DP23); details: host cell Ca^2+ saturated calmodulin; cited from earlier work
# Indonesia H5N1 [10] = type: in vivo, mice; details: peptide added to virus just prior to intranasal dose, FIG. 25
# [11] = tested on: P. aeruginosa and primary human skin fibroblasts; details: co-culture; cited from earlier work
# C. albicans = experiment: In vitro fungal killing assay; details: 6 μM, RPMI 1640, 37° C.; reference strain SC5314 and all clinical isolates
# Aspergillus fumigatus = experiment: In vitro fungal killing assay; details: 2 isolates
# [12] = tested on: Cryptococcocus neoformans; experiment: In vitro fungal killing assay; details: 3 isolates
# P. aeruginosa [13] = details: intravenous administration; cited from earlier work
# Indonesia H5N1 [14] = type: cell-based, influenza virus; details: eleven two-fold serial dilutions from 50 μM, FIG. 24
# C. lusitaniae = experiment: In vitro fungal killing assay; details: 6 μM, RPMI 1640, 37° C.; all isolates
# [15] = tested on: vaccine strain of B. anthracis; type: cell-based, Bacillus anthracis; details: FIG. 26
# P. aeruginosa [16] = experiment: LSA-5 bound to Affigel 15 column, viable bacteria in eluant; details: same column repeatedly exposed to bacterial suspensions
# S. aureus [17] = experiment: Rabbit joint model of septic arthritis
# S. aureus [18] = experiment: Bactericidal activity in human synovial fluid
# S. epidermidis = experiment: In vitro activity against S. epidermidis
# [19] = tested on: HIV-1 (strain IIIB) virions; experiment: Suppression of HIV-1 infectivity, p24 antigen in PHA stimulated PBMCs; type: cell-based; details: 1 and 0.1 μM
# Protocol: In this example human peripheral blood […] (PBMCs) were obtained from healthy volunteers and maintained in culture at a concentration of 1×10^5 viable cells per mL of medium. These cells were stimulated by the addition of phytohemagglutinin (PHA). To this a standardized titer of purified HIV-1 (strain IIIB) virions was added to PBMCs to generate a p24 antigen signal of 14,000 pg/mL five days post exposure to virus.
# In order to test whether the LLP peptide, LSA-5 (SEQ ID NO: 2) was able to suppress HIV-1 activity, LSA-5 at concentrations ranging between 0.1 and 100 μM were incubated with the standard virus titer determined as above for 30 min. Virions surviving peptide exposure were isolated by ultracentrifugation at 100,000×g for 60 min. Viral pellets were used to infect PHA stimulated PBMCs prepared as described above. Five days post infection the level of p24 antigen was determined and compared to a non-peptide treated control. The data was expressed as the ratio of p24 antigen associated with peptide-treated vs. non-peptide treated HIV-1 infected cells to obtain a value referred to as percent suppression.
# [20] = phosphate buffer with 150 mM NaCl versus low salt
substance,measurement,setting,value
"RWIRVVQRWCRAIRHIWRRIRQGLRRWLRVV [WLSA-5, RWIRVVQRWCRAIRHIWRRIRQGLRRWLRVV]","MBC, Methicillin Resistant S. aureus, 0 mM NaCl",[1],150
same,viability of bacteria bound to epithelial cells,[2],decrease in bacterial viability
same,"MBC, Staphylococcus aureus, 0 mM NaCl",Staphylococcus aureus [3],1 µM
same,"MBC, Staphylococcus aureus, 150 mM NaCl",Staphylococcus aureus [3],1 µM
same,"S. aureus killing, influence of physiologic NaCl",Staphylococcus aureus [3]; [20],not influenced by NaCl in the same way as LL37; also recorded: maintained its activity in low and physiologic salt conditions
same,"MBC, Psuedomonas aeruginosa, 0 mM NaCl",Pseudomonas aeruginosa [4],1000
same,"MBC, Psuedomonas aeruginosa, 150 mM NaCl",Pseudomonas aeruginosa [4],1000
same,"P. aeruginosa killing, influence of physiologic NaCl",Pseudomonas aeruginosa [4]; [20],not affected by NaCl inclusion; also recorded: maintained its activity in low and physiologic salt conditions
same,change in transepithelial resistance,[5]; at a decrease in bacterial counts by two orders of magnitude,less than 50%
same,effect on trans-epithelial resistance,[5]; compared with LL-37,transient and not significantly different from LL-37
same,activity against B. cepacia clinical isolate,Burkholderia cepacia,significantly more active than LSA-5
"LLP1: prototypical lentiviral lytic peptide, amino acids 828-856 of the HIV-1 viral isolate HXB2R Env (SEQ ID NO: 19) (RVIEVVQGACRAIRHIPRRIRQGLERIL; Human immunodeficiency virus type 1) [reference compound]","MBC, Methicillin Resistant S. aureus, 0 mM NaCl",[1],16000
same,"MBC, Staphylococcus aureus, 0 mM NaCl",Staphylococcus aureus [3],8 µM
same,"MBC, Staphylococcus aureus, 150 mM NaCl",Staphylococcus aureus [3],16 µM
same,"time to nearly sterilize suspension, P. aeruginosa",Pseudomonas aeruginosa [6],≤ 60 s
same,antibacterial activity compared with magainin-2,[7],"equal to, or more potent than magainin-2"
same,"time to nearly sterilize suspension, S. aureus",Staphylococcus aureus [8],≤ 60 s
same,"MBC, Psuedomonas aeruginosa, 0 mM NaCl",Pseudomonas aeruginosa [4],1000
same,"MBC, Psuedomonas aeruginosa, 150 mM NaCl",Pseudomonas aeruginosa [4],1000
same,binding affinity to calmodulin,[9],near nanomolar affinity
"RRWVRRVRRVWRRVVRVVRRWVRR [WLBU-2, RRWVRRVRRVWRRVVRVVRRWVRR]",infectivity of virus in mice,Indonesia H5N1 [10],inactivate the infectivity of virus
same,"MBC, Methicillin Resistant S. aureus, 0 mM NaCl",[1],200
same,"MBC, Methicillin Resistant S. aureus, 150 mM NaCl",[1]; 150 mM NaCl (physiologic),100
same,antibacterial selectivity,[11],highest antibacterial selectivity of all peptides evaluated
same,"time to fully fungicidal effect, C. albicans",C. albicans,≤ 5 min
same,concentration to which A. fumigatus isolates were resistant,Aspergillus fumigatus,> 100 µM
same,"MBC, Staphylococcus aureus, 0 mM NaCl",Staphylococcus aureus [3],1 µM
same,"MBC, Staphylococcus aureus, 150 mM NaCl",Staphylococcus aureus [3],0.6 µM
same,concentration that completely killed C. neoformans,[12],3 µM
same,protection in murine model,P. aeruginosa [13],protection against a lethal challenge of P. aeruginosa
same,infectious virus plaque formation,Indonesia H5N1 [14],dose-dependent decrease in infectious virus plaque formation
same,"time to fully fungicidal effect, C. lusitaniae",C. lusitaniae,≤ 5 min
same,"concentration that completely killed 75% of the isolates, C. tropicalis","C. tropicalis; RPMI 1640, 37° C.",3 µM
same,"concentration that completely killed the remaining isolates, C. tropicalis","C. tropicalis; RPMI 1640, 37° C.",25 µM
same,"minimum fungicidal concentration (MFC, >99.9% kill), C. tropicalis",C. tropicalis; remaining isolates,≤ 6 µM
same,"MBC, Psuedomonas aeruginosa, 0 mM NaCl",Pseudomonas aeruginosa [4],200
same,"MBC, Psuedomonas aeruginosa, 150 mM NaCl",Pseudomonas aeruginosa [4],100
same,inhibition of vegetative form,[15],inhibit the vegetative form of B. anthracis
same,"concentration that completely killed 75% of the isolates, C. krusei","C. krusei; RPMI 1640, 37° C.",3 µM
same,"concentration that completely killed the remaining isolates, C. krusei","C. krusei; RPMI 1640, 37° C.",25 µM
same,"minimum fungicidal concentration (MFC, >99.9% kill), C. krusei",C. krusei; remaining isolates,≤ 6 µM
"RVIRVVQRACRAIRHIVRRIRQGLRRILRVV [LSA-5, RVIRVVQRACRAIRHIVRRIRQGLRRILRVV]","MBC, Methicillin Resistant S. aureus, 0 mM NaCl",[1],150
same,"MBC, Staphylococcus aureus, 0 mM NaCl",Staphylococcus aureus [3],1 µM
same,"MBC, Staphylococcus aureus, 150 mM NaCl",Staphylococcus aureus [3],1 µM
same,passages of bacterial suspension over which the column maintained activity,P. aeruginosa [16],up to 6 passages
same,bacteria (colony forming units) in joint fluid,"S. aureus [17]; 50, 100 and 200 μM intraarticularly, 1 h after instillation, versus non-peptide treated joint, FIG. 11",dose-dependent decrease in colony forming units; also recorded: significantly increases bacterial killing
same,"bacterial load in joint, comparison with 0.35% neomycin","S. aureus [17]; intraarticular at 0, 1 and 2 h, FIG. 12",nearly as effective as a standard concentration of neomycin
same,adverse toxicity in animal experiments,"S. aureus [17]; peptide administered alone, intraarticular",no adverse toxicity was observed
same,bacterial load in joint,"S. aureus [17]; two treatments of 150 μM at 0 and 1 h, 1 h post-treatment, versus phosphate buffer",significant decrease
same,concentration at which peptide is still active in synovial fluid,"S. aureus [18]; 1:4 dilution of human synovial fluid, FIG. 10",128 µM
same,effect of synovial fluid on activity,S. aureus [18]; versus phosphate buffer containing physiologic NaCl,clearly impairs the activity
same,activity against S. epidermidis in vitro,S. epidermidis,highly active
same,"MBC, Psuedomonas aeruginosa, 0 mM NaCl",Pseudomonas aeruginosa [4],800
same,"MBC, Psuedomonas aeruginosa, 150 mM NaCl",Pseudomonas aeruginosa [4],800
same,reduction of HIV-1 infectivity,[19],drop off this inhibitory activity
